Results as given in ChEMBL document CHEMBL4808201, “Novel triazole-sulfonamide bearing pyrimidine moieties with carbonic anhydrase inhibitory action: Design, synthesis, computational and enzyme inhibition studies” (Bioorg Med Chem Lett, 2021).

Biological target: Carbonic anhydrase 9 (Homo sapiens, UniProt Q16790)
Assay: Inhibition of human CA9 measured by stopped flow CO2 hydrase assay

Ki	SMILES
192 nM	NS(=O)(=O)c1ccc(-n2cc(COc3ccnc(N4CCN(C(c5ccccc5)c5ccccc5)CC4)n3)nn2)cc1
30.2 nM	Cc1cc(OCc2cn(-c3ccc(S(N)(=O)=O)cc3)nn2)nc(N2CCOCC2)n1
35.8 nM	Cc1cc(OCc2cn(-c3ccc(S(N)(=O)=O)cc3)nn2)nc(N2CCCCC2)n1
42.5 nM	NS(=O)(=O)c1ccc(-n2cc(COc3ccnc(N4CCOCC4)n3)nn2)cc1
21.4 nM	Cc1cc(OCc2cn(-c3ccc(S(N)(=O)=O)cc3)nn2)nc(N2CCN(C(c3ccccc3)c3ccccc3)CC2)n1
9.1 nM	Cc1cc(OCc2cn(-c3ccc(S(N)(=O)=O)cc3)nn2)nc(N2CCN(c3ccccn3)CC2)n1
39.1 nM	NS(=O)(=O)c1ccc(-n2cc(COc3ccnc(N4CCN(Cc5ccccc5)CC4)n3)nn2)cc1
466 nM	Cc1cc(OCc2cn(-c3ccc(S(N)(=O)=O)cc3)nn2)nc(N2CCN(c3ccc(F)cc3)CC2)n1
16.1 nM	CCN1CCN(c2nc(C)cc(OCc3cn(-c4ccc(S(N)(=O)=O)cc4)nn3)n2)CC1
29.7 nM	COc1ccc(-c2nc(C)cc(OCc3cn(-c4ccc(S(N)(=O)=O)cc4)nn3)n2)cc1
41.1 nM	Cc1cc(OCc2cn(-c3ccc(S(N)(=O)=O)cc3)nn2)nc(N2CCN(Cc3ccccc3)CC2)n1
32 nM	Cc1cc(OCc2cn(-c3ccc(S(N)(=O)=O)cc3)nn2)nc(-c2ncccc2C#N)n1
24.1 nM	Cc1cc(OCc2cn(-c3ccc(S(N)(=O)=O)cc3)nn2)nc(N2CCN(C)CC2)n1
32.2 nM	NS(=O)(=O)c1ccc(-n2cc(COc3ccnc(N4CCN(Cc5ccc(Cl)cc5)CC4)n3)nn2)cc1
25.8 nM	NS(=O)(=O)c1ccc(-n2cc(COc3ccnc(N4CCN(c5ccc(F)cc5)CC4)n3)nn2)cc1
33.4 nM	CCOC(=O)N1CCN(c2nc(C)cc(OCc3cn(-c4ccc(S(N)(=O)=O)cc4)nn3)n2)CC1
44.7 nM	COc1ccccc1N1CCN(c2nccc(OCc3cn(-c4ccc(S(N)(=O)=O)cc4)nn3)n2)CC1
51.4 nM	COc1ccc(-c2nccc(OCc3cn(-c4ccc(S(N)(=O)=O)cc4)nn3)n2)cc1
41.3 nM	NS(=O)(=O)c1ccc(-n2cc(COc3ccnc(N4CCCCC4)n3)nn2)cc1
22.7 nM	CCN1CCN(c2nccc(OCc3cn(-c4ccc(S(N)(=O)=O)cc4)nn3)n2)CC1
26.3 nM	NS(=O)(=O)c1ccc(-n2cc(COc3ccnc(N4CCN(c5ccccc5)CC4)n3)nn2)cc1
16.8 nM	NS(=O)(=O)c1ccc(-n2cc(COc3ccnc(N4CCN(c5ccccn5)CC4)n3)nn2)cc1
155 nM	N#Cc1cccnc1-c1nccc(OCc2cn(-c3ccc(S(N)(=O)=O)cc3)nn2)n1
1.6 nM	CCOC(=O)N1CCN(c2nccc(OCc3cn(-c4ccc(S(N)(=O)=O)cc4)nn3)n2)CC1
2.9 nM	Cc1cc(OCc2cn(-c3ccc(S(N)(=O)=O)cc3)nn2)nc(N2CCN(Cc3ccc(Cl)cc3)CC2)n1
32.8 nM	Cc1cc(OCc2cn(-c3ccc(S(N)(=O)=O)cc3)nn2)nc(N2CCN(c3ccccc3)CC2)n1
30.4 nM	CN1CCN(c2nccc(OCc3cn(-c4ccc(S(N)(=O)=O)cc4)nn3)n2)CC1
36.3 nM	COc1ccccc1N1CCN(c2nc(C)cc(OCc3cn(-c4ccc(S(N)(=O)=O)cc4)nn3)n2)CC1
